Results published in ChEMBL document CHEMBL1201862, “PubChem BioAssay data set” (2004).
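Exposure lasted 48 hours, with cells grown in 96-well plates and compounds tested at five concentrations. Here, GI50 denotes the concentration required for 50% inhibition of growth.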 Calls of active or inactive are those of the source. No stated cut-off is given here; in the data, active = GI50 up to about 1.1 µM and inactive = higher.

Legend:
Test in all cases: growth of human tumour cells (NCI), 48 h
786-0 = tested on: 786-0
A549 = tested on: A549
ACHN = tested on: ACHN
CCRF-CEM = tested on: CCRF-CEM
COLO 205 = tested on: COLO 205
DMS-114 = tested on: DMS-114
DMS-273 = tested on: DMS-273
EKVX = tested on: EKVX
HCC 2998 = tested on: HCC 2998
HCT-116 = tested on: HCT-116
HCT-15 = tested on: HCT-15
HL-60 = tested on: HL-60
HOP-62 = tested on: HOP-62
HT-29 = tested on: HT-29
IGROV-1 = tested on: IGROV-1
K562 = tested on: K562
KM-20L2 = tested on: KM-20L2
KM12 = tested on: KM12
LOX IMVI = tested on: LOX IMVI
LXFL 529 = tested on: LXFL 529
M14 = tested on: M14
M19-MEL = tested on: M19-MEL
MOLT-4 = tested on: MOLT-4
Malme-3M = tested on: Malme-3M
NCI-H226 = tested on: NCI-H226
NCI-H23 = tested on: NCI-H23
NCI-H460 = tested on: NCI-H460
NCI-H522 = tested on: NCI-H522
OVCAR-3 = tested on: OVCAR-3
OVCAR-8 = tested on: OVCAR-8
RPMI-8226 = tested on: RPMI-8226
SF-268 = tested on: SF-268
SF-295 = tested on: SF-295
SF-539 = tested on: SF-539
SK-MEL-28 = tested on: SK-MEL-28
SK-MEL-5 = tested on: SK-MEL-5
SK-OV-3 = tested on: SK-OV-3
SN12C = tested on: SN12C
SNB-19 = tested on: SNB-19
SR = tested on: SR
SW-620 = tested on: SW-620
TK-10 = tested on: TK-10
U-251 = tested on: U-251
UACC-257 = tested on: UACC-257
UACC-62 = tested on: UACC-62
UO-31 = tested on: UO-31
XF498 = tested on: XF498
A498 = tested on: A498
CAKI-1 = tested on: CAKI-1
DLD-1 = tested on: DLD-1
HOP-92 = tested on: HOP-92
OVCAR-4 = tested on: OVCAR-4
OVCAR-5 = tested on: OVCAR-5
RXF 393 = tested on: RXF 393
SK-MEL-2 = tested on: SK-MEL-2
SNB-75 = tested on: SNB-75
SNB-78 = tested on: SNB-78

For `Cc1ccc(-n2cc(/C(N)=N/O)c3ccccc3c2=O)cc1`, the GI50 (786-0) was > 100 µM (inactive), the GI50 (A549) was > 100 µM (inactive) and the GI50 (ACHN) was > 100 µM (inactive). The GI50 (CCRF-CEM) was > 100 µM (inactive), the GI50 (COLO 205) was > 100 µM (inactive) and the GI50 (DMS-114) was > 100 µM (inactive). For the same molecule, the GI50 (DMS-273) was > 100 µM (inactive), the GI50 (EKVX) was > 100 µM (inactive) and the GI50 (HCC 2998) was > 100 µM (inactive). The GI50 (HCT-116) was > 100 µM (inactive), the GI50 (HCT-15) was over 100 µM and the GI50 (HL-60) was > 100 µM (inactive). The GI50 (HOP-62) was > 100 µM (inactive), the GI50 (HT-29) was > 100 µM (inactive) and the GI50 (IGROV-1) was > 100 µM (inactive). The GI50 (K562) was > 100 µM (inactive), the GI50 (KM-20L2) was > 100 µM (inactive) and the GI50 (KM12) was > 100 µM (inactive). For the same molecule, the GI50 (LOX IMVI) was > 100 µM (inactive), the GI50 (LXFL 529) was > 100 µM (inactive) and the GI50 (M14) was > 100 µM (inactive). For the same molecule, the GI50 (M19-MEL) was > 100 µM (inactive), the GI50 (MOLT-4) was > 100 µM (inactive) and the GI50 (Malme-3M) was > 100 µM (inactive). For the same molecule, the GI50 (NCI-H226) was > 100 µM (inactive), the GI50 (NCI-H23) was > 100 µM (inactive) and the GI50 (NCI-H460) was > 100 µM (inactive). For the same molecule, the GI50 (NCI-H522) was > 100 µM (inactive), the GI50 (OVCAR-3) was > 100 µM (inactive) and the GI50 (OVCAR-8) was > 100 µM (inactive). For the same molecule, the GI50 (RPMI-8226) was > 100 µM (inactive), the GI50 (SF-268) was > 100 µM (inactive) and the GI50 (SF-295) was > 100 µM (inactive). For the same molecule, the GI50 (SF-539) was > 100 µM (inactive), the GI50 (SK-MEL-28) was > 100 µM (inactive) and the GI50 (SK-MEL-5) was > 100 µM (inactive). For the same molecule, the GI50 (SK-OV-3) was > 100 µM (inactive), the GI50 (SN12C) was > 100 µM (inactive) and the GI50 (SNB-19) was > 100 µM (inactive). The GI50 (SR) was > 100 µM (inactive), the GI50 (SW-620) was > 100 µM (inactive) and the GI50 (TK-10) was > 100 µM (inactive). For the same molecule, the GI50 (U-251) was > 100 µM (inactive), the GI50 (UACC-257) was > 100 µM (inactive) and the GI50 (UACC-62) was > 100 µM (inactive). The GI50 (UO-31) was > 100 µM (inactive) and the GI50 (XF498) was > 100 µM (inactive).

For `CC1OC(CC2C=CCc3c(O)c4c(c(O)c32)C(=O)c2ccccc2C4=O)CC(NC(=O)C(F)(F)F)C1O` (stereo not drawn), the GI50 (786-0) was 11.1 µM (inactive), the GI50 (A498) was 4.69 µM (inactive) and the GI50 (ACHN) was 10.9 µM (inactive). The GI50 (CAKI-1) was 7.55 µM (inactive), the GI50 (CCRF-CEM) was 5.11 µM (inactive) and the GI50 (COLO 205) was 13.8 µM (inactive). For the same molecule, the GI50 (DLD-1) was 7.38 µM (inactive), the GI50 (DMS-114) was 10 µM (inactive) and the GI50 (DMS-273) was 6.32 µM (inactive). For the same molecule, the GI50 (EKVX) was 12.6 µM (inactive), the GI50 (HCC 2998) was 29.4 µM (inactive) and the GI50 (HCT-116) was 3.13 µM (inactive). The GI50 (HCT-15) was 11.9 µM, the GI50 (HL-60) was 11.8 µM (inactive) and the GI50 (HOP-62) was 6.49 µM (inactive). For the same molecule, the GI50 (HOP-92) was 2.92 µM (inactive), the GI50 (HT-29) was 14.4 µM (inactive) and the GI50 (IGROV-1) was 18.9 µM (inactive). The GI50 (K562) was 4.85 µM (inactive), the GI50 (KM-20L2) was 16.3 µM (inactive) and the GI50 (KM12) was 15.9 µM (inactive). For the same molecule, the GI50 (LOX IMVI) was 6.73 µM (inactive), the GI50 (LXFL 529) was 6.87 µM (inactive) and the GI50 (M14) was 4.29 µM (inactive). For the same molecule, the GI50 (M19-MEL) was 8.22 µM (inactive), the GI50 (MOLT-4) was 7.21 µM (inactive) and the GI50 (Malme-3M) was 3.12 µM (inactive). For the same molecule, the GI50 (NCI-H226) was 13.7 µM (inactive), the GI50 (NCI-H23) was 7.59 µM (inactive) and the GI50 (NCI-H460) was 5.25 µM (inactive). For the same molecule, the GI50 (NCI-H522) was 18.1 µM (inactive), the GI50 (OVCAR-3) was 6.76 µM (inactive) and the GI50 (OVCAR-4) was 2.79 µM (inactive). For the same molecule, the GI50 (OVCAR-5) was 42.8 µM (inactive), the GI50 (OVCAR-8) was 4.22 µM (inactive) and the GI50 (RPMI-8226) was 4.28 µM (inactive). For the same molecule, the GI50 (RXF 393) was 2.52 µM (inactive), the GI50 (SF-268) was 10.3 µM (inactive) and the GI50 (SF-295) was 5.74 µM (inactive). The GI50 (SF-539) was 3.95 µM (inactive), the GI50 (SK-MEL-28) was 4.55 µM (inactive) and the GI50 (SK-MEL-2) was 6.87 µM (inactive). The GI50 (SK-MEL-5) was 11.2 µM (inactive), the GI50 (SK-OV-3) was 10.2 µM (inactive) and the GI50 (SN12C) was 5.5 µM (inactive). For the same molecule, the GI50 (SNB-19) was 4.86 µM (inactive), the GI50 (SNB-75) was 2.27 µM (inactive) and the GI50 (SNB-78) was 4.18 µM (inactive). The GI50 (SR) was 3.7 µM (inactive), the GI50 (SW-620) was 14.3 µM (inactive) and the GI50 (TK-10) was 2.29 µM (inactive). The GI50 (U-251) was 3.94 µM (inactive), the GI50 (UACC-257) was 7.93 µM (inactive) and the GI50 (UACC-62) was 4.71 µM (inactive). For the same molecule, the GI50 (UO-31) was 20 µM (inactive) and the GI50 (XF498) was 1.91 µM (inactive).
